Tests used:
[1] = tested on: normal NK cells expanded with K562-aAPC; test: percent inhibition of viability; higher = more inhibition; details: 72 h, IL-2 2.5 ng/mL
Protocol: (§1)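 Drug sensitivity and resistance testing on K562-aAPC-expanded normal NK cells: 5 concentrations (10-fold steps over a 10,000-fold range), 72 h at 37 °C, viability by CellTiter-Glo normalised to DMSO and benzethonium chloride controls; DSS from the fitted curve.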

DERL-7 (IL-2 2.5 ng/mL) [2] = test: as above; details: 72 h
IMC-1 (IL-2 20 ng/mL) [3] = test: as above; details: 72 h
KAI3 (IL-2 2.5 ng/mL) [4] = test: as above; details: 72 h
KHYG-1 (IL-2 2.5 ng/mL) [5] = test: as above; details: 72 h
NK-92 (IL-2 2.5 ng/mL) [6] = test: as above; details: 72 h
NK-YS (IL-2 2.5 ng/mL) [7] = test: as above; details: 72 h
NKL (IL-2 2.5 ng/mL) [8] = test: as above; details: 72 h
SNK-6 (IL-2 2.5 ng/mL) [9] = test: as above; details: 72 h
YT (IL-2 2.5 ng/mL) [10] = test: as above; details: 72 h
[11] = tested on: normal primary NK cells, pool 1 (3 donors) (IL-2 2.5 ng/mL); test: as above; details: 72 h
[12] = tested on: normal primary NK cells, pool 1 (3 donors), resting (IL-2 0 ng/mL); test: as above; details: 72 h
[13] = tested on: normal primary NK cells, pool 2 (3 donors) (IL-2 2.5 ng/mL); test: as above; details: 72 h
[14] = tested on: normal primary NK cells, pool 3 (3 donors) (IL-2 2.5 ng/mL); test: as above; details: 72 h
[15] = tested on: normal NK cells expanded with K562-aAPC; test: drug sensitivity score (DSS) (DSS units); higher = more sensitive; extreme values may be limits of the assay; details: 72 h; IL-2 2.5 ng/mL
Protocol: as §1

DERL-7 (IL-2 2.5 ng/mL) [16] = test: as above; details: 72 h
IMC-1 (IL-2 20 ng/mL) [17] = test: as above; details: 72 h
KAI3 (IL-2 2.5 ng/mL) [18] = test: as above; details: 72 h
KHYG-1 (IL-2 2.5 ng/mL) [19] = test: as above; details: 72 h
NK-92 (IL-2 2.5 ng/mL) [20] = test: as above; details: 72 h
NK-YS (IL-2 2.5 ng/mL) [21] = test: as above; details: 72 h
NKL (IL-2 2.5 ng/mL) [22] = test: as above; details: 72 h
SNK-6 (IL-2 2.5 ng/mL) [23] = test: as above; details: 72 h
YT (IL-2 2.5 ng/mL) [24] = test: as above; details: 72 h
[25] = tested on: normal primary NK cells, pool 1 (3 donors) (IL-2 2.5 ng/mL); test: as above; details: 72 h
[26] = tested on: normal primary NK cells, pool 1 (3 donors), resting (IL-2 0 ng/mL); test: as above; details: 72 h
[27] = tested on: normal primary NK cells, pool 2 (3 donors) (IL-2 2.5 ng/mL); test: as above; details: 72 h
[28] = tested on: normal primary NK cells, pool 3 (3 donors) (IL-2 2.5 ng/mL); test: as above; details: 72 h

CCOc1ccn(-c2ccc(F)cc2)c(=O)c1C(=O)Nc1ccc(Oc2ccnc(N)c2Cl)c(F)c1 (max concentration tested 2500 nM)
percent inhibition of viability [%]
Details	0.25 nM	2.5 nM	25 nM	250 nM	2500 nM
DERL-7 (IL-2 2.5 ng/mL) [2]	0.56	6.06	-1.35	-3.94	-13.7
IMC-1 (IL-2 20 ng/mL) [3]	1.35	4.61	9.25	10.7	18.1
KAI3 (IL-2 2.5 ng/mL) [4]	-2.82	-5.11	1.22	-8.32	20.1
KHYG-1 (IL-2 2.5 ng/mL) [5]	2.8	3.63	7.75	3.92	7.23
NK-92 (IL-2 2.5 ng/mL) [6]	3.4	-2.02	21.5	-9.18	16.5
NK-YS (IL-2 2.5 ng/mL) [7]	2.13	-0.09	0.55	-3.25	13.2
NKL (IL-2 2.5 ng/mL) [8]	-8.21	-0.56	-2.88	6.9	-2.79
SNK-6 (IL-2 2.5 ng/mL) [9]	22.9	33.8	31.2	18.3	22.9
YT (IL-2 2.5 ng/mL) [10]	2.07	4.23	5.47	0.52	37
[1]	2.01	1.6	-0.61	0.57	7.12
[11]	0.3	-5.73	-0.6	-11.2	-8.87
[12]	1.56	-12.4	-1.07	-26.3	-16.3
[13]	-3.75	2.69	-0.75	-6	3.09
[14]	-11.7	1.36	-4.15	-4.08	-3.34

Details	drug sensitivity score
DERL-7 (IL-2 2.5 ng/mL) [16]	0
IMC-1 (IL-2 20 ng/mL) [17]	1.25
KAI3 (IL-2 2.5 ng/mL) [18]	0.35
KHYG-1 (IL-2 2.5 ng/mL) [19]	0
NK-92 (IL-2 2.5 ng/mL) [20]	0.14
NK-YS (IL-2 2.5 ng/mL) [21]	0.06
NKL (IL-2 2.5 ng/mL) [22]	0
SNK-6 (IL-2 2.5 ng/mL) [23]	0.23
YT (IL-2 2.5 ng/mL) [24]	1.85
[15]	0
[25]	0
[26]	0
[27]	0
[28]	0

CCc1cncnc1N1CCN(Cc2nc3ccc(C(F)(F)F)cc3[nH]2)CC1 (max concentration tested 10000 nM)
percent inhibition of viability [%]
Details	1 nM	10 nM	100 nM	1000 nM	10000 nM
DERL-7 (IL-2 2.5 ng/mL) [2]	3.43	7.18	-5.16	-1.27	14.8
IMC-1 (IL-2 20 ng/mL) [3]	-6.13	-3.43	3.72	11.3	90
KAI3 (IL-2 2.5 ng/mL) [4]	-0.12	-5.66	-9.54	-2.26	28.4
KHYG-1 (IL-2 2.5 ng/mL) [5]	-4.31	-8.31	-0.12	17.2	49.7
NK-92 (IL-2 2.5 ng/mL) [6]	-1.05	10.1	6.83	20.4	62.3
NK-YS (IL-2 2.5 ng/mL) [7]	-2.32	-5.55	-2.77	9.57	47.8
NKL (IL-2 2.5 ng/mL) [8]	-11.3	-11	-6.3	10.8	60.8
SNK-6 (IL-2 2.5 ng/mL) [9]	-7.09	-9.08	8.29	30.2	30.4
YT (IL-2 2.5 ng/mL) [10]	-1.53	-2.69	2.06	11.5	41.9
[1]	-4.68	-5.08	-4.29	0.89	5
[11]	-2.5	14.2	12.3	11.8	63.6
[12]	-8.97	13.4	10	13.6	75.6
[13]	-7.09	4.46	7.58	8.67	44.9
[14]	-9.93	7.71	7.04	-6.89	26.4

Details	drug sensitivity score
DERL-7 (IL-2 2.5 ng/mL) [16]	0.17
IMC-1 (IL-2 20 ng/mL) [17]	6.88
KAI3 (IL-2 2.5 ng/mL) [18]	1.03
KHYG-1 (IL-2 2.5 ng/mL) [19]	5.08
NK-92 (IL-2 2.5 ng/mL) [20]	5.84
NK-YS (IL-2 2.5 ng/mL) [21]	4.07
NKL (IL-2 2.5 ng/mL) [22]	5.1
SNK-6 (IL-2 2.5 ng/mL) [23]	6.35
YT (IL-2 2.5 ng/mL) [24]	3.86
[15]	0
[25]	5.45
[26]	6.44
[27]	3.74
[28]	0.75

C[C@@]1(C(=O)Nc2ccc(F)nc2)CCCN1c1nc(Nc2cc(C3CC3)n[nH]2)c2cccn2n1 (max concentration tested 10000 nM)
percent inhibition of viability [%]
Details	1 nM	10 nM	100 nM	1000 nM	10000 nM
DERL-7 (IL-2 2.5 ng/mL) [2]	-1.6	5.82	2.68	74.3	60.1
IMC-1 (IL-2 20 ng/mL) [3]	1.89	-6.3	0.07	3.22	76.3
KAI3 (IL-2 2.5 ng/mL) [4]	-1.42	-2.58	4.51	22.4	41.7
KHYG-1 (IL-2 2.5 ng/mL) [5]	-3.05	-5.44	1.8	30.1	70.8
NK-92 (IL-2 2.5 ng/mL) [6]	1.84	11	7.85	33.8	57.6
NK-YS (IL-2 2.5 ng/mL) [7]	-3.69	-4.66	4.73	65.5	77.1
NKL (IL-2 2.5 ng/mL) [8]	-16.6	-4.3	-14.1	1.87	-5.96
SNK-6 (IL-2 2.5 ng/mL) [9]	2.3	-11.9	-15.8	57.8	74.8
YT (IL-2 2.5 ng/mL) [10]	3.08	1.72	7.96	25	51.8
[1]	-9.12	-3.4	-6.53	45.5	42.2
[11]	-6.95	-10	3.68	2.67	12.4
[12]	-9	-4.43	15.4	-2.47	51.6
[13]	-2.95	-4.83	-5.48	-1.42	10.7
[14]	-3.23	-1.9	0.53	7.47	-2.1

Details	drug sensitivity score
DERL-7 (IL-2 2.5 ng/mL) [16]	13.9
IMC-1 (IL-2 20 ng/mL) [17]	4.66
KAI3 (IL-2 2.5 ng/mL) [18]	4.58
KHYG-1 (IL-2 2.5 ng/mL) [19]	7.7
NK-92 (IL-2 2.5 ng/mL) [20]	7.43
NK-YS (IL-2 2.5 ng/mL) [21]	12.7
NKL (IL-2 2.5 ng/mL) [22]	0
SNK-6 (IL-2 2.5 ng/mL) [23]	10.8
YT (IL-2 2.5 ng/mL) [24]	5.62
[15]	7.77
[25]	0.16
[26]	2.52
[27]	0
[28]	0
